Source: patent publication US4245106A, “Process for the preparation of 1-alkyl-3-aryl-4-pyrazolecarboxylates” (Monsanto Company, priority 1979, dated 1981)

What was measured:
Type in all cases: in vivo
Quackgrass [1] = assay: post-emergent herbicidal activity test
Experimental: (§1) The post-emergent tests were conducted as follows. The active ingredients are applied in spray form to two or three-week old specimens of various plant species. The spray, a solution or wettable powder suspension containing the appropriate rate of active ingredient to give the desired test rate and a surfactant, is applied to the plants. The treated plants are placed in a greenhouse and unless otherwise noted approximately four weeks later the effects are observed and recorded.

Johnsongrass [2] = assay: post-emergent herbicidal activity test
Experimental: as §1

Morningglory [3] = assay: post-emergent herbicidal activity test
Experimental: as §1

Smartweed [4] = assay: post-emergent herbicidal activity test
Experimental: as §1

Barnyard grass [5] = assay: post-emergent herbicidal activity test
Experimental: as §1

Lambsquarter [6] = assay: post-emergent herbicidal activity test
Experimental: as §1

Nutsedge [7] = assay: post-emergent herbicidal activity test
Experimental: as §1

Canada Thistle [8] = assay: post-emergent herbicidal activity test
Experimental: as §1

Cocklebur [9] = assay: post-emergent herbicidal activity test
Experimental: as §1

Bromus tectorum [10] = assay: post-emergent herbicidal activity test
Experimental: as §1

Velvetleaf [11] = assay: post-emergent herbicidal activity test
Experimental: as §1

Quackgrass [12] = assay: pre-emergent herbicidal activity test
Experimental: (§2) Table II summarizes results of tests conducted to determine the pre-emergent as well as the post-emergent herbicidal activity of the compounds. The pre-emergent test was conducted as follows:
(§3) A good grade of top soil was placed in aluminum pans and compacted to a depth of three-eighths to one-half inch from the top of the pan. On the top of the soil was placed a predetermined number of seeds or vegetative propagules of various plant species. The soil required to level fill the pans after seeding or adding vegetative propagules was weighed into a pan. A known amount of the active ingredient applied in a solvent or as a wettable powder and the soil were thoroughly mixed, and used as a cover layer for prepared pans. After treatment the pans were moved into a greenhouse bench where they were watered from below as needed to give adequate moisture for germination and growth.
(§4) A herbicial rating code was used to signify the extent of phytotoxicity of each species. The rating are defined as follows: […]

Johnsongrass [13] = assay: pre-emergent herbicidal activity test
Experimental: as §2, §3, §4

Morningglory [14] = assay: pre-emergent herbicidal activity test
Experimental: as §2, §3, §4

Smartweed [15] = assay: pre-emergent herbicidal activity test
Experimental: as §2, §3, §4

Barnyard grass [16] = assay: pre-emergent herbicidal activity test
Experimental: as §2, §3, §4

Lambsquarter [17] = assay: pre-emergent herbicidal activity test
Experimental: as §2, §3, §4

Nutsedge [18] = assay: pre-emergent herbicidal activity test
Experimental: as §2, §3, §4

Canada Thistle [19] = assay: pre-emergent herbicidal activity test
Experimental: as §2, §3, §4

Cocklebur [20] = assay: pre-emergent herbicidal activity test
Experimental: as §2, §3, §4

Bromus tectorum [21] = assay: pre-emergent herbicidal activity test
Experimental: as §2, §3, §4

Velvetleaf [22] = assay: pre-emergent herbicidal activity test
Experimental: as §2, §3, §4

[23] = 11.2 Kg/Ha, approximately four weeks later
[24] = *11.2 Kg/Ha, observed approximately 14 days after treatment
[25] = 11.2 Kg/Ha, approximately 28 days after seeding and treating
Also: ranges in brackets are in %.

CCOC(=O)c1cn(C)nc1-c1cc(C(F)(F)F)cc(C(F)(F)F)c1 [Example 10]
1 (25-49): Post-Emergent herbicidal rating, F Smartweed (Smartweed [4]; [24]) | Post-Emergent herbicidal rating, K Barnyard grass (Barnyard grass [5]; [23]) | Post-Emergent herbicidal rating, E Lambsquarter (Lambsquarter [6]; [24]) | Post-Emergent herbicidal rating, A Canada Thistle (Canada Thistle [8]; [23]) | Post-Emergent herbicidal rating, C Velvetleaf (Velvetleaf [11]; [24]) | Pre-Emergent herbicidal rating, D Morningglory (Morningglory [14]; [24]) | Pre-Emergent herbicidal rating, F Smartweed (Smartweed [15]; [24]) | Pre-Emergent herbicidal rating, A Canada Thistle (Canada Thistle [19]; [24]) | Pre-Emergent herbicidal rating, J Bromus tectorum (Bromus tectorum [21]; [25]) | Pre-Emergent herbicidal rating, J Bromus tectorum (Bromus tectorum [21]; [24]) | Pre-Emergent herbicidal rating, C Velvetleaf (Velvetleaf [22]; [24])
2 (50-74): Post-Emergent herbicidal rating, D Morningglory (Morningglory [3]; [23]) | Post-Emergent herbicidal rating, D Morningglory (Morningglory [3]; [24]) | Post-Emergent herbicidal rating, E Lambsquarter (Lambsquarter [6]; [23]) | Post-Emergent herbicidal rating, A Canada Thistle (Canada Thistle [8]; [24]) | Post-Emergent herbicidal rating, B Cocklebur (Cocklebur [9]; [23]) | Post-Emergent herbicidal rating, B Cocklebur (Cocklebur [9]; [24]) | Pre-Emergent herbicidal rating, K Barnyard grass (Barnyard grass [16]; [25])
0 (0-24): Post-Emergent herbicidal rating, H Quackgrass (Quackgrass [1]; [23]) | Post-Emergent herbicidal rating, H Quackgrass (Quackgrass [1]; [24]) | Post-Emergent herbicidal rating, I Johnsongrass (Johnsongrass [2]; [23]) | Post-Emergent herbicidal rating, I Johnsongrass (Johnsongrass [2]; [24]) | Post-Emergent herbicidal rating, F Smartweed (Smartweed [4]; [23]) | Post-Emergent herbicidal rating, K Barnyard grass (Barnyard grass [5]; [24]) | Post-Emergent herbicidal rating, G Nutsedge (Nutsedge [7]; [23]) | Post-Emergent herbicidal rating, G Nutsedge (Nutsedge [7]; [24]) | Post-Emergent herbicidal rating, J Bromus tectorum (Bromus tectorum [10]; [23]) | Post-Emergent herbicidal rating, J Bromus tectorum (Bromus tectorum [10]; [24]) | Post-Emergent herbicidal rating, C Velvetleaf (Velvetleaf [11]; [23]) | Pre-Emergent herbicidal rating, H Quackgrass (Quackgrass [12]; [25]) | Pre-Emergent herbicidal rating, H Quackgrass (Quackgrass [12]; [24]) | Pre-Emergent herbicidal rating, I Johnsongrass (Johnsongrass [13]; [25]) | Pre-Emergent herbicidal rating, I Johnsongrass (Johnsongrass [13]; [24]) | Pre-Emergent herbicidal rating, D Morningglory (Morningglory [14]; [25]) | Pre-Emergent herbicidal rating, F Smartweed (Smartweed [15]; [25]) | Pre-Emergent herbicidal rating, G Nutsedge (Nutsedge [18]; [25]) | Pre-Emergent herbicidal rating, G Nutsedge (Nutsedge [18]; [24]) | Pre-Emergent herbicidal rating, A Canada Thistle (Canada Thistle [19]; [25]) | Pre-Emergent herbicidal rating, B Cocklebur (Cocklebur [20]; [25]) | Pre-Emergent herbicidal rating, B Cocklebur (Cocklebur [20]; [24]) | Pre-Emergent herbicidal rating, C Velvetleaf (Velvetleaf [22]; [25])
3 (75-100): Pre-Emergent herbicidal rating, K Barnyard grass (Barnyard grass [16]; [24]) | Pre-Emergent herbicidal rating, E Lambsquarter (Lambsquarter [17]; [25]) | Pre-Emergent herbicidal rating, E Lambsquarter (Lambsquarter [17]; [24])
